Source: patent US12472259B2, “PKC inhibitors for the treatment of septic cholestasis with polymethine dye targeting” (SMARTDYELIVERY GMBH, priority 2018, dated 2025)

What was measured:
[1] = test system: male C57/BL6 mice, PCI model; experiment: Survival rate in cholestasis model under septic conditions, peritoneal contamination and infection (PCI); type: in vivo; conditions: 4 mg/kg body weight
Description: In order to mimic the septic cholestasis, a systemic inflammation was induced using the well-established peritoneal contamination and infection (PCI) model. In this model, a human faeces suspension is applied intraperitoneally (i.p.) and rapidly triggers sepsis with liver dysfunction.
For each batch of human stool, the dose is titrated carefully for a survival between 0% and 20% within two weeks.
To find the adequate dose of stool, different doses were tested. 6 h after i.p. application of the stool, 8-12 weeks old C57/BL6 mice or FVB/N mice were treated with the nanoparticles or the free drug respectively.
A systemic infection/sepsis with organ failure was induced in male C57/BL6 mice by using the PCI model. For this purpose, a human fecal suspension (2.5 μl/g BW for stool batch1 and 6 μl/g for stool batch 2, respectively) was injected intraperitoneally (without anesthesia) with weight adaptation, thus triggering peritonitis with subsequent systemic infection. […] The animals were closely monitored and scored every 6 hours for signs of infection in order to timely. […] With the evaluated dose of 6 μl/g BW stool and additional antibiotic therapy, all mice died within three days, as shown in the Kaplan-Meier-Schatzer diagram (FIG. 11, right panel). […]

[2] = during idelalisib; cited from earlier work
[3] = cited from earlier work

Which “activity of the free drug alone (dose evaluation, survival)” value [1] does the source give for O=C1NC(=O)/C(=C\c2ccc3nccnc3c2)S1 [AS605240] here?
Its value is “active”.

With CN(C)CCCn1cc(C2=C(c3c[nH]c4ccccc34)C(=O)NC2=O)c2ccccc21 [BIM-1] as the compound, how does the “activity of the free drug alone (dose evaluation, survival)” value [1] read?
The value was “active”.

For CC[C@H](Nc1ncnc2[nH]cnc12)c1nc2cccc(F)c2c(=O)n1-c1ccccc1 [idelalisib], which “risk of developing sepsis as adverse effect compared to placebo” value [2] is on record?
The value was “five-fold higher risk”.

For CO[C@@H]1[C@H](N(C)C(=O)c2ccccc2)C[C@H]2O[C@]1(C)n1c3ccccc3c3c4c(c5c6ccccc6n2c5c31)C(=O)NC4 [midostaurin], which “On-treatment death unrelated to the underlying malignancy” value ([3]; 16 patients, most commonly from infection (sepsis or pneumonia)) is on record?
Its value is 11%.

And the “Grade≥3 adverse reactions (fatigue, sepsis, gastrointestinal hemorrhage, pneumonia, diarrhea, febrile neutropenia) reported in” value ([3]; patients on midostaurin)?
Its value is at least 5%.

And the “Serious adverse reactions most commonly due to infections and gastrointestinal disorders” value ([3]; patients on midostaurin)?
The value was 20%.

What about the “Serious adverse reactions reported” value ([3]; patients on midostaurin) of the same compound?
Its value is 68 % of patients.

What about the “Treatment discontinuation due to adverse reaction” value ([3]; patients on midostaurin) of the same compound?
The value was 21 % of patients.
